The supplement of paper PMC10307832

Compound: CN(C)C[C@@H]1CCn2cc(c3ccccc32)C2=C(C(=O)NC2=O)c2cn(c3ccccc23)CCO1 [Ruboxistaurin] + CCNC(=O)c1noc(-c2cc(C(C)C)c(O)cc2O)c1-c1ccc(CN2CCOCC2)cc1 [Luminespib] (partner 0.01 µM)
Assay: relative viability (nuclei count vs DMSO), 5 days (fraction); higher = more cells survive
Outline: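 Relative viability is defined as nuclei in treated wells over nuclei in vehicle wells. Duplicate plates were run and medians reported. Lung cancer cell lines in 1536-well plates were dosed by pin tool one day after seeding, with one drug or with a fixed anchor-drug dose plus five library-drug doses (not always all listed) in √10 steps, and nuclei were counted after 5 days.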

Cell Line: NCI-H647
- relative viability (first compound 0.08 µM): 0.17
- relative viability (first compound 0.8 µM): 0.114
- relative viability (first compound 2.53 µM): 0.217
- relative viability (first compound 8 µM): 0.232

Cell Line: NCI-H2009
- relative viability (first compound 0.08 µM): 1.14
- relative viability (first compound 0.8 µM): 1.01
- relative viability (first compound 2.53 µM): 0.984
- relative viability (first compound 8 µM): 1.15

Cell Line: EPLC-272H
- relative viability (first compound 0.08 µM): 0.368
- relative viability (first compound 0.8 µM): 0.224
- relative viability (first compound 2.53 µM): 0.293
- relative viability (first compound 8 µM): 0.668

Cell Line: NCI-H520
- relative viability (first compound 0.08 µM): 0.227
- relative viability (first compound 0.8 µM): 0.182
- relative viability (first compound 2.53 µM): 0.227
- relative viability (first compound 8 µM): 0.225

Cell Line: NCI-H2405
- relative viability (first compound 0.08 µM): 0.818
- relative viability (first compound 0.8 µM): 0.606
- relative viability (first compound 2.53 µM): 0.804
- relative viability (first compound 8 µM): 0.699

Cell Line: NCI-H2085
- relative viability (first compound 0.08 µM): 0.53
- relative viability (first compound 0.8 µM): 0.4
- relative viability (first compound 2.53 µM): 0.49
- relative viability (first compound 8 µM): 0.42

Cell Line: NCI-H322M
- relative viability (first compound 0.08 µM): 0.836
- relative viability (first compound 0.8 µM): 0.718
- relative viability (first compound 2.53 µM): 0.766
- relative viability (first compound 8 µM): 0.399

Cell Line: NCI-H1944
- relative viability (first compound 0.08 µM): 0.406
- relative viability (first compound 0.8 µM): 0.632
- relative viability (first compound 2.53 µM): 0.72
- relative viability (first compound 8 µM): 0.726

Cell Line: LC-2-ad
- relative viability (first compound 0.08 µM): 1.22
- relative viability (first compound 0.8 µM): 0.989
- relative viability (first compound 2.53 µM): 1.01
- relative viability (first compound 8 µM): 1.1

Cell Line: NCI-H358
- relative viability (first compound 0.08 µM): 0.498
- relative viability (first compound 0.8 µM): 0.32
- relative viability (first compound 2.53 µM): 0.242
- relative viability (first compound 8 µM): 0.386

Cell Line: NCI-H2170
- relative viability (first compound 0.08 µM): 0.779
- relative viability (first compound 0.8 µM): 0.649
- relative viability (first compound 2.53 µM): 0.758
- relative viability (first compound 8 µM): 0.522

Cell Line: A-427
- relative viability (first compound 0.08 µM): 0.974
- relative viability (first compound 0.8 µM): 0.757
- relative viability (first compound 2.53 µM): 0.869
- relative viability (first compound 8 µM): 0.611

Cell Line: NCI-H1666
- relative viability (first compound 0.08 µM): 1.03
- relative viability (first compound 0.8 µM): 0.964
- relative viability (first compound 2.53 µM): 1.03
- relative viability (first compound 8 µM): 1.08

Cell Line: LOU-NH91
- relative viability (first compound 0.08 µM): 0.286
- relative viability (first compound 0.8 µM): 0.298
- relative viability (first compound 2.53 µM): 0.361
- relative viability (first compound 8 µM): 0.369

Cell Line: ABC-1
- relative viability (first compound 0.08 µM): 0.773
- relative viability (first compound 0.8 µM): 0.823
- relative viability (first compound 2.53 µM): 0.564
- relative viability (first compound 8 µM): 0.669

Cell Line: NCI-H1651
- relative viability (first compound 0.08 µM): 1.06
- relative viability (first compound 0.8 µM): 0.835
- relative viability (first compound 2.53 µM): 0.899
- relative viability (first compound 8 µM): 0.901

Cell Line: 201T
- relative viability (first compound 0.08 µM): 1.09
- relative viability (first compound 0.8 µM): 1.01
- relative viability (first compound 2.53 µM): 1.09
- relative viability (first compound 8 µM): 1

Cell Line: NCI-H3122
- relative viability (first compound 0.08 µM): 0.0884
- relative viability (first compound 0.8 µM): 0.1
- relative viability (first compound 2.53 µM): 0.11
- relative viability (first compound 8 µM): 0.0946

Cell Line: NCI-H727
- relative viability (first compound 0.08 µM): 0.345
- relative viability (first compound 2.53 µM): 0.355
- relative viability (first compound 8 µM): 0.323

Cell Line: NCI-H441
- relative viability (first compound 0.08 µM): 0.407
- relative viability (first compound 0.8 µM): 0.276
- relative viability (first compound 2.53 µM): 0.355
- relative viability (first compound 8 µM): 0.338

Cell Line: HOP-62
- relative viability (first compound 0.08 µM): 0.964
- relative viability (first compound 0.8 µM): 0.892
- relative viability (first compound 2.53 µM): 0.989
- relative viability (first compound 8 µM): 1.01

Cell Line: RERF-LC-KJ
- relative viability (first compound 0.08 µM): 1.23
- relative viability (first compound 0.8 µM): 1.08
- relative viability (first compound 2.53 µM): 1.36
- relative viability (first compound 8 µM): 0.965

Cell Line: HCC-44
- relative viability (first compound 0.08 µM): 1.16
- relative viability (first compound 0.8 µM): 0.973
- relative viability (first compound 2.53 µM): 1.06
- relative viability (first compound 8 µM): 1.09

Cell Line: LCLC-103H
- relative viability (first compound 0.08 µM): 1.02
- relative viability (first compound 0.8 µM): 0.791
- relative viability (first compound 2.53 µM): 0.934
- relative viability (first compound 8 µM): 0.808

Cell Line: NCI-H1915
- relative viability (first compound 0.08 µM): 0.765
- relative viability (first compound 0.8 µM): 0.638
- relative viability (first compound 2.53 µM): 0.72
- relative viability (first compound 8 µM): 0.565

Cell Line: ChaGo-K-1
- relative viability (first compound 0.08 µM): 0.63
- relative viability (first compound 0.8 µM): 0.558
- relative viability (first compound 2.53 µM): 0.76
- relative viability (first compound 8 µM): 0.529

Cell Line: PC-14
- relative viability (first compound 0.08 µM): 0.159
- relative viability (first compound 0.8 µM): 0.144
- relative viability (first compound 2.53 µM): 0.184
- relative viability (first compound 8 µM): 0.154

Cell Line: SK-LU-1
- relative viability (first compound 0.08 µM): 0.208
- relative viability (first compound 0.8 µM): 0.212
- relative viability (first compound 2.53 µM): 0.204
- relative viability (first compound 8 µM): 0.2

Cell Line: NCI-H1437
- relative viability (first compound 0.08 µM): 1.17
- relative viability (first compound 0.8 µM): 1.1
- relative viability (first compound 2.53 µM): 1.17
- relative viability (first compound 8 µM): 1.22

Cell Line: NCI-H1734
- relative viability (first compound 0.08 µM): 0.174
- relative viability (first compound 0.8 µM): 0.161
- relative viability (first compound 2.53 µM): 0.179
- relative viability (first compound 8 µM): 0.178

Cell Line: LK-2
- relative viability (first compound 0.08 µM): 0.22
- relative viability (first compound 0.8 µM): 0.182
- relative viability (first compound 2.53 µM): 0.154
- relative viability (first compound 8 µM): 0.172

Cell Line: HCC-15
- relative viability (first compound 0.08 µM): 0.278
- relative viability (first compound 0.8 µM): 0.329
- relative viability (first compound 2.53 µM): 0.32
- relative viability (first compound 8 µM): 0.716

Cell Line: NCI-H650
- relative viability (first compound 0.08 µM): 0.841
- relative viability (first compound 0.8 µM): 0.7
- relative viability (first compound 2.53 µM): 0.875
- relative viability (first compound 8 µM): 0.938

Cell Line: NCI-H2347
- relative viability (first compound 0.08 µM): 0.568
- relative viability (first compound 0.8 µM): 0.373
- relative viability (first compound 2.53 µM): 0.289
- relative viability (first compound 8 µM): 0.297
